The source of these data is US20260191849A1, “PHARMACEUTICAL COMPOSITION FOR TREATMENT OF CANCER” (WIGEN BIOMEDICINE TECHNOLOGY (SHANGHAI) CO., LTD., priority 2022, published 2026).

Test [1] deals with HT29 subcutaneous xenograft tumors. Put plainly: In vivo pharmacodynamic study of combination therapy, HT29 subcutaneous xenograft tumor model of mice (Biological Example 14). Also on record: species or system BALB/c nude mice. The source says: BALB/c nude mice were each inoculated subcutaneously with 5×10^6 HT29 cells on the left dorsal side. After the tumors grew to 100-150 mm^3, the mice were randomly divided into the following groups for intragastric administration once daily for 14 consecutive days: group 1: vehicle control group; group 2: AMG650 (50 mpk, PO, QD); group 3: compound 714 (50 mpk, PO, QD); group 4: AMG650 (50 mpk, PO, QD)+Onvasertib (20 mpk, PO, QD); group 5: compound 714 (50 mpk, PO, QD)+Onvasertib (20 mpk, PO, QD); and group 6: Onvasertib (20 mpk, PO, QD). The administration to all the groups was stopped on day 15, and the tumor growth continued to be observed until day 21. The tumor volume was measured twice weekly and at the end of administration. […]

For test [2], the system named is SK-OV-3 cells. As to the kind of experiment: Combined use of compound 257 or AMG650 with PLK1 inhibitor on SK-OV-3 cell viability, 168 h (Biological Example 21). The note with it: Homo sapiens, SK-OV-3, 168 h, SK-OV-3 cells, 168 h, read-out: Volasertib IC50. It counts as cell-based. As to the method: SK—OV-3 cells were seeded on a 384-well plate at 3000 cells/well. After overnight adherence culture, DMSO or compound 257 or AMG650 serially diluted in a 1:5 ratio from 400 nM and a PLK1 inhibitor with a specified concentration were added. The cell viability was assessed 168 h after dosing by measuring the intracellular ATP content. […] Furthermore, interactions between the drugs were also analyzed using the BLISS independence model, and the results are shown in FIG. 11 and FIG. 12.

Test [3] has as its system HT29 cells. As to the kind of experiment: Combined use of compound 257 or AMG650 with PLK1 inhibitor (Volasertib) on HT29 cell viability, 168 h (Biological Example 22). It is filed as cell-based. The note with it: Homo sapiens, HT-29, 168 h, HT29 cells, 168 h, read-out: Volasertib IC50. Here is the method: HT29 cells were seeded on a 384-well plate at 3000 cells/well. After overnight adherence culture, DMSO or compound 257 or AMG650 serially diluted in a 1:5 ratio from 400 nM and a PLK1 inhibitor with a specified concentration were added. The cell viability was assessed 168 h after dosing by measuring the intracellular ATP content. […] Furthermore, interactions between the drugs were also analyzed using the BLISS independence model, and the results are shown in FIG. 15 and FIG. 16.

Test [4] concerns HT29 cells. Put plainly: Combined use of compound 257, AMG650 or Compound A with PLK1 inhibitor on HT29 cell viability, 168 h (Biological Example 19). It is filed as cell-based. The note with it: for IC50: HT29 cells. Here is the method: HT29 cells were seeded on a 384-well plate at 3000 cells/well.
Test [5] relates to HCT116 cells. As to the kind of experiment: Combined use of compound 257, AMG650 or Compound A with PLK1 inhibitor on HCT116 cell viability, 168 h (Biological Example 20). It is filed as cell-based. Here is the method: HCT116 cells were seeded on a 384-well plate at 3000 cells/well. After overnight adherence culture, DMSO or compound 257, AMG650, or Compound A serially diluted in a 1:5 ratio from 400 nM and a PLK1 inhibitor with a specified concentration were added. The cell viability was assessed 168 h after dosing by measuring the intracellular ATP content. The inhibition percentages of viable cells by the compounds were calculated by comparing with the DMSO group, and the IC50 values were also calculated.

Setting [6] is: PO QD 14 days, AMG650/714 50 mpk, Onvasertib 20 mpk, day 15.
Where [7] appears, read: KIF18A inhibitor AMG650 0.0001 nM.
Setting [8] is: KIF18A inhibitor AMG650 0.64 nM.
The mark [9] stands for this setting: KIF18A inhibitor Compound 257 0.0001 nM.
Where [10] appears, read: KIF18A inhibitor Compound 257 0.64 nM.
[11] abbreviates: KIF18A inhibitor Compound 257 3.2 nM.
Where [12] appears, read: KIF18A inhibitor Compound 257 16 nM.
Where [13] appears, read: KIF18A inhibitor Compound 257 80 nM.
Setting [14] is: KIF18A inhibitor Compound 257 400 nM.

Read-outs that look alike come from different tables or passages of the source. Where only a bound is given, the exact number is not on record here.

A word on the IC50: it is the concentration needed to halve the response being measured.

Turning to `CN1CCN(c2ccc(OC(F)(F)F)c(Nc3ncc4c(n3)-c3c(c(C(N)=O)nn3CCO)CC4)c2)CC1` [Onvasertib, Onvansertib], the “Tumor volume on day 1 of administration” value in test [1] (PO QD 14 days, AMG650/714 50 mpk, Onvasertib 20 mpk, day 1 (baseline)) came to 134 mm^3. Also, in test [1] (setting [6]), the “TGI on day 15” value stood at 80% and the “Tumor volume on day 15 of administration” value was 249 mm^3. Moreover, the “therapeutic efficacy of monotherapy in HT29-bearing mice” value in test [1] (monotherapy, in words) is recorded as “relatively weak therapeutic efficacy”.

Regarding `CC[C@@H]1C(=O)N(C)c2cnc(Nc3ccc(C(=O)N[C@H]4CC[C@H](N5CCN(CC6CC6)CC5)CC4)cc3OC)nc2N1C(C)C` [Volasertib], the IC50 in test [2] (setting [7]) was 82.1 nM; in test [2] (setting [8]), 70.5 nM; in test [2] (KIF18A inhibitor AMG650 3.2 nM), 60.5 nM; in test [2] (KIF18A inhibitor AMG650 16 nM), 38.2 nM; in test [2] (KIF18A inhibitor AMG650 80 nM), 9.9 nM; in test [2] (KIF18A inhibitor AMG650 400 nM), 8.1 nM. In addition, the IC50 in test [2] (setting [9]) was 77.9 nM; in test [2] (setting [10]), 61.6 nM; in test [2] (setting [11]), 35.8 nM; in test [2] (setting [12]) it was 10.1 nM; in test [2] (setting [13]), 5.7 nM; in test [2] (setting [14]) it was 5.3 nM. Besides, the IC50 in test [3] (setting [7]) amounted to 22.8 nM; in test [3] (setting [8]) it was 37.8 nM; in test [3] (KIF18A inhibitor AMG650 3.2 nM), 34.9 nM; in test [3] (KIF18A inhibitor AMG650 16 nM) it was 19.5 nM; in test [3] (KIF18A inhibitor AMG650 80 nM), 18.3 nM; in test [3] (KIF18A inhibitor AMG650 400 nM), 15.5 nM. Also, the IC50 in test [3] (setting [9]) was found to be 17.2 nM; in test [3] (setting [10]), 15.6 nM; in test [3] (setting [11]), 10.2 nM; in test [3] (setting [12]) it was 1.2 nM; in test [3] (setting [13]), 1.4 nM; in test [3] (setting [14]) it was 0.7 nM.

Turning to `CCS(=O)(=O)Nc1ccc2c(c1)C1(CCC3(CC3)CC1)CN2C(=O)c1cccc(S(=O)(=O)NC(C)(C)C)c1` [Compound A], the “inhibitory effect on HT-29 cells, combined use with the PLK1 inhibitor compared with monotherapy” value in test [4] (CYC140 or TAK-960, in words) is “stronger inhibitory effect”. For the same compound, the IC50 in test [4] (Homo sapiens, HT-29, 168 h, CYC140 (Plogosertib) 0.0001 nM, read-out: IC50) turned out to be 26.1 nM; in test [4] (Homo sapiens, HT-29, 168 h, CYC140 (Plogosertib) 1.6 nM, read-out: IC50), 19.6 nM; in test [4] (Homo sapiens, HT-29, 168 h, CYC140 (Plogosertib) 8 nM, read-out: IC50) it was 15.5 nM; in test [4] (Homo sapiens, HT-29, 168 h, CYC140 (Plogosertib) 40 nM, read-out: IC50), 2.2 nM; in test [4] (Homo sapiens, HT-29, 168 h, TAK-960 0.0001 nM, read-out: IC50), 23.8 nM; in test [4] (Homo sapiens, HT-29, 168 h, TAK-960 1.6 nM, read-out: IC50) it was 17.3 nM. In addition, the IC50 in test [4] (Homo sapiens, HT-29, 168 h, TAK-960 8 nM, read-out: IC50) is 4.2 nM; in test [4] (Homo sapiens, HT-29, 168 h, TAK-960 40 nM, read-out: IC50), 4.1 nM; in test [5] (HCT116 cells, CYC140 (Plogosertib) 1.6 nM), greater than 400 nM; in test [5] (HCT116 cells, CYC140 (Plogosertib) 8 nM) it was greater than 400 nM; in test [5] (HCT116 cells, CYC140 (Plogosertib) 40 nM), greater than 400 nM; in test [5] (HCT116 cells, TAK-960 0 nM) it was greater than 400 nM. The IC50 in test [5] (HCT116 cells, TAK-960 1.6 nM) is greater than 400 nM; in test [5] (HCT116 cells, TAK-960 8 nM) it was greater than 400 nM; in test [5] (HCT116 cells, TAK-960 40 nM), greater than 400 nM; in test [5] (Homo sapiens, HCT-116, HCT116 cells, CYC140 (Plogosertib) 0 nM) it was greater than 400 nM. Also, in test [5] (CYC140 or TAK-960, in words), the “synergistic effect on HCT116 cell viability, combined use with the PLK1 inhibitor” value is “no significant synergistic effect”. The “anti-proliferative activity against HCT116 cells, monotherapy” value in test [5] (in words) is “did not exhibit anti-proliferative activity”.

On to `COc1cc(C(=O)N[C@H]2CC[C@H](N3CCN(C)CC3)CC2)ccc1Nc1ncc2c(n1)N(C1CCCC1)CC1(CC1)C(=O)N2C` [CYC140 (Plogosertib), Plogosertib], for which the concentration for half-maximal inhibition (IC50) turned out to be 50.1 nM in test [4] (KIF18A inhibitor AMG650 0.0001 nM, read-out: PLK1 inhibitor IC50); 48.9 nM in test [4] (KIF18A inhibitor AMG650 0.64 nM, read-out: PLK1 inhibitor IC50); 49.9 nM in test [4] (KIF18A inhibitor AMG650 3.2 nM, read-out: PLK1 inhibitor IC50); 24.9 nM in test [4] (KIF18A inhibitor AMG650 16 nM, read-out: PLK1 inhibitor IC50); 7.9 nM in test [4] (KIF18A inhibitor AMG650 80 nM, read-out: PLK1 inhibitor IC50); 3.5 nM in test [4] (KIF18A inhibitor AMG650 400 nM, read-out: PLK1 inhibitor IC50). Also, the IC50 was found to be 52.1 nM in test [4] (KIF18A inhibitor Compound 257 0.0001 nM, read-out: PLK1 inhibitor IC50); 37 nM in test [4] (KIF18A inhibitor Compound 257 0.64 nM, read-out: PLK1 inhibitor IC50); 15.5 nM in test [4] (KIF18A inhibitor Compound 257 3.2 nM, read-out: PLK1 inhibitor IC50); 3.8 nM in test [4] (KIF18A inhibitor Compound 257 16 nM, read-out: PLK1 inhibitor IC50); 1.6 nM in test [4] (KIF18A inhibitor Compound 257 80 nM, read-out: PLK1 inhibitor IC50); 2.2 nM in test [4] (KIF18A inhibitor Compound 257 400 nM, read-out: PLK1 inhibitor IC50).
